The target of data set [1] is T1, ASK1 T838 auto phosphorylation (Homo sapiens, UniProt Q99683).
T1 construct: ASK1-V5 tagged full length plasmid; expressed in transfected cells; host or cells: HEK-293T
T1 sequence (Q99683 1-1374): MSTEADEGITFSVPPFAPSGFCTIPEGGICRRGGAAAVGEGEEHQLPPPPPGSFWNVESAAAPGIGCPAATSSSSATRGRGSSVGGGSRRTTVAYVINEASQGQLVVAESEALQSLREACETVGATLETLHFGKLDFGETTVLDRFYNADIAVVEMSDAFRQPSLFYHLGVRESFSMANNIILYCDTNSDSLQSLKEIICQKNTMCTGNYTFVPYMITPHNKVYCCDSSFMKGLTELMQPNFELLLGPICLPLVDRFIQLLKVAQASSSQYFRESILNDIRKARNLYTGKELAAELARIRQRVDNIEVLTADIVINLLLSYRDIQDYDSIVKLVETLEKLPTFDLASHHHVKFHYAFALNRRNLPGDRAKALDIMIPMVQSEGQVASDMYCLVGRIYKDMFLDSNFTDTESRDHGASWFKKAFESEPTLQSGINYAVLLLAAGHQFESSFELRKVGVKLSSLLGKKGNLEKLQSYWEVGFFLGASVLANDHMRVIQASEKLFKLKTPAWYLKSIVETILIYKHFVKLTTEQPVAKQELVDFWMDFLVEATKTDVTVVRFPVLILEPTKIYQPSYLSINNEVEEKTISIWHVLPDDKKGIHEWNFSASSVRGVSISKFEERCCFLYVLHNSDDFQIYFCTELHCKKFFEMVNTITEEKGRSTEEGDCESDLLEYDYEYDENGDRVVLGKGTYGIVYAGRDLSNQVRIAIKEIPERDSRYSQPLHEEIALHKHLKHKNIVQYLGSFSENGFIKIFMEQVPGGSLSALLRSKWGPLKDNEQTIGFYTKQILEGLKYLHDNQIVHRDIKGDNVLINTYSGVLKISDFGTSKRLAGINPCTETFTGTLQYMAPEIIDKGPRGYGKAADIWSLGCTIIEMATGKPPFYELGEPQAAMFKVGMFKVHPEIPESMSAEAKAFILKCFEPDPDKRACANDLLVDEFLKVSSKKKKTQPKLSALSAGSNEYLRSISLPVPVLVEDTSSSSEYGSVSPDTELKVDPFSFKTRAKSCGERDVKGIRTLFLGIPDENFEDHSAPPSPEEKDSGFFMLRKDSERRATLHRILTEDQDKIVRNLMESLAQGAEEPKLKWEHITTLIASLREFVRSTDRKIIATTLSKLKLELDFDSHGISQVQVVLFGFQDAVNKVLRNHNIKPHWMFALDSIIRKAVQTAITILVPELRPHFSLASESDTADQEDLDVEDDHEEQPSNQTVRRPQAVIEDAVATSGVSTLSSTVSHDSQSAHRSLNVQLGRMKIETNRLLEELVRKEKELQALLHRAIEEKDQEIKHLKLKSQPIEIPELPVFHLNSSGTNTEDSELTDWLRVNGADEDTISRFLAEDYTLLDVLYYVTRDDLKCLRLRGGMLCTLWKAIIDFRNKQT
The data set is described as follows: ASK1 (AUTO PHOS T838) assay in HEK-293T cells, MSD format. Particulars: HEK-293T cells transfected with ASK1-V5, 1 hr compound incubation; class symbols. It is filed as cell-based. Here is the method: ASK1 T838 auto phosphorylation was measured in HEK-293T cells using MSD assay format. HEK 293T cells were seeded in 15 cm plates at a density of 18 million cells and 20 mL DMEM with 10% FBS, Pen/Strep media. The plates were incubated at 37° C. overnight. Media on plates was changed to OPTI-MEM, serum free media and cells were transfected with 9 μg of ASK1-V5 tagged full length plasmid using Lipofectamine 2000 (Invitrogen) and the plates were incubated at 37° C. overnight. Cells were trypsinized, counted on Nexcellometer and plated into 96 well tissue culture plates with 100,000 cells/well and 200 μL media. Cells were incubated for 4 hr at 37° C. then ASK1 compounds were added using a HP 300e. Compounds were tested at 20 μM with 3 fold, 10 point dilution points then incubated for 1 hr at 37° C. A lysis buffer (Cell Signaling) was prepared with protease and phosphatase inhibitor and maintained at 4° C. until use. Media from cells was discarded and 120 μL of cold lysis buffer was added to the cells, the plate was shaken 4° C. for 1 hr. Lysate was mixed using Apricot liquid handler; aspirating up and down 16 times at high speed using 50 μL volume. 50 μL of cell lysates were transferred to a pre-coated MSD plates containing mouse anti-V5 antibody (1:500 dilution) and washed 3× with MSD wash buffer (TBST) and blocked with a 3% BSA solution. Plates were then incubated on a plate shaker overnight at 4° C. Plates were washed 3× with MSD wash buffer and 50 μL of rabbit anti-pASK1 T838 antibody was added to the wells and incubated for 2 hr at room temperature on a plate shaker. Plates were then washed and 50 μL of goat anti-rabbit sulfa-tag (1:500 dilution) was added to wells, and incubated for 1 hr at room temperature on a plate shaker. Plates were washed 3× and 150 μL of 2×MSD Read buffer was added to wells. Plates were immediately read on a MSD Instrument Reader where chemoluminecense signal was measured. Data was analyzed using Graph Pad or Genedata, the data was normalized and plotted, % activity versus log of compound concentration. The IC50 values were obtained from a 4 parameter fit.

A short description of data set [2]: In vivo brain penetration (rat Kpuu study). Particulars: brain and plasma (unbound), IV infusion in the carotid artery for four hours, 1 mg/kg, steady state, Kpuu=Cu,b/Cu,p. The method, then: To evaluate the CNS penetration of the compounds described herein, several compounds were selected for in vivo rat Kpuu studies. In these experiments the compounds are administered via an IV infusion (using N,N-dimethylacetamide:ethanol:1,2-propylene glycol:water in a 1:1:3:5 ratio as the vehicle) in the carotid artery for a period of four hours (1 mg/kg, 0.1 mg/mL) to reach steady state. After this time the plasma and brain concentration levels are quantified, and the values are adjusted by the measured protein binding in plasma and brain homogenate to calculate the Kpuu (see Di, L.; Kerns, E. H. Blood-Brain Barrier in Drug Discovery (Wiley)) according to the equation below. Kpuu=Cu,b/Cu,p • Wherein: • Cu,b=Unbound concentration in brain (C×fu,b). (C=concentration at steady state; fu,b=fraction unbound in brain) • And in which: Cu,p=Unbound concentration in plasma (C×fu,p). (C=concentration at steady state; fu,p=fraction unbound in plasma)
Plasma and brain protein binding values were generated via the Rapid Equilibrium Dialysis method. The compound of interest was incubated in K2EDTA plasma and brain homogenate (homogenized 1:7 (w:v) in 1×PBS) purchased from BioIVT (Westbury, N.Y.), opposite a buffered compartment of 100 mM Potassium phosphate/150 mM Sodium chloride, pH 7.4, at 1 μM for 4 hr and 6 hr respectively. At the conclusion of incubation samples were taken from both matrix and buffered compartments, matrix-matched using blank buffer and matrix, extracted with acetonitrile, diluted with water, and analyzed utilizing an Agilent RapidFire 365 high-throughput LC coupled with MS/MS detection via an AB Sciex 5500. Free fractions (fu) were then calculated by comparing internal standard/analyte peak-area ratios of matrix and buffered compartments. Cross-species brain protein binding was considered to be equivalent for the purposes of calculating free fraction (see Di, L., et al., (2011a) Species Independence in Brain Tissue Binding Using Brain Homogenates, Drug Metab Dispos 39:1270-1277).
Total drug concentration in plasma and brain tissue was measured via well-established bioanalytical extraction (protein precipitation) and detection methods (LC-MS/MS). Brain tissues were homogenized 1:4 (w:v) with 1×PBS in MP Biomedicals Lysing Matrix D tubes via an MP Biomedicals FastPrep-24™ homogenizer and were then extracted alongside plasma samples by matrix-matching with blank K2EDTA plasma (purchased from BioIVT), followed by protein crash/extraction with acetonitrile, supernatant dry down under nitrogen, and reconstitution with an acidified aqueous/organic mixture before being measured against a calibration curve of the compound of interest prepared in plasma, matrix-matched with blank brain homogenate (generated with brains purchased from BioIVT), and similarly extracted. Reconstituted extracts were then analyzed via LC-MS/MS (AB Sciex 5500) utilizing a binary HPLC setup (Shimadzu LC-20ADvp) and reverse-phase chromatography gradient (ACE 3 C18-AR). Peak area ratios and a 1/x^2 regression fit were used to generate sample concentration values that, combined with plasma and brain protein binding values, were used to generate free drug concentration values and partitioning coefficient (Kpuu).

The target in another data set is T2, ASK1/MAP3K5 (Homo sapiens, UniProt Q99683).
T2 construct: purchased Reaction Biology Corp. (Malvern, Pa.)
T2 sequence (Q99683 1-1374): T1 sequence (Q99683 1-1374)
The data set is described as follows: ASK1 enzyme assay (ASK1/MAP3K5 assay by Reaction Biology Corp., 33P-ATP filter-binding). The settings on record: 20 μM myelin basic protein and 10 μM ATP; class symbols. Format: biochemical. The method, then: The protein kinase inhibitory activity of the compounds described herein were tested using the ASK1/MAP3K5 assay by Reaction Biology Corp. (Malvern, Pa.). The assay procedure follows (and is also available on the Reaction Biology Corp. website). • Base Reaction Buffer: 20 mM Hepes (pH 7.5), 10 mM MgCl2, 1 mM EGTA, • 0.02% Brij35, 0.02 mg/mL BSA, 0.1 mM Na3VO4, 2 mM DTT, 1% DMSO; • Substrate: 20 μM of myelin basic protein (MBP) and 10 μM ATP; • Protein kinase: ASK1/MAP3K5. • Reaction Procedure: • 1. Prepare indicated substrate in freshly prepared Base Reaction Buffer. • 2. Deliver any required cofactors to the substrate solution. • 3. Deliver indicated kinase into the substrate solution and gently mix. • 4. Deliver compounds in DMSO into the kinase reaction mixture by Acoustic; technology (Echo550; nanoliter range), incubate for 20 minutes at room temperature. • 5. Deliver ^33P-ATP (specific activity 10 μCi/μL) into the reaction mixture to initiate the reaction. • 6. Incubate kinase reaction for 2 hours at room temperature. • 7. Reactions are spotted onto P81 ion exchange paper. • 8. Detect kinase activity by filter-binding method.

As a reminder, the IC50 is the concentration that inhibits the measured activity by half. The low end stands for inhibition by little substance, the high end for a need for much substance. In turn, `C[C@H]1CCCOc2ncc(N3CCN(C)CC3)cc2C(=O)Nc2cccc(n2)-c2nncn21` [Compound 10, (S)-10-Methyl-5^5-(4-methylpiperazin-1-yl)-1^4H-6-oxa-3-aza-2(2,6),5(3,2)-dipyridina-1(3,4)-triazolacyclodecaphan-4-one] displayed an IC50 in data set [1] of at most 100 nM. In data set [2], this compound came in with a Kp uu at 4 h of under 0.1.

`Cc1ccc(-c2cnc3c(c2)C(=O)Nc2cccc(n2)-c2nncn2[C@@H](C)CCCO3)cn1` [Compound 19, (S)-10-Methyl-5^5-(6-methylpyridin-3-yl)-1^4H-6-oxa-3-aza-2(2,6),5(3,2)-dipyridina-1(3,4)-triazolacyclodecaphan-4-one]: the IC50 in data set [1] was at most 100 nM. This compound also displayed a Kp uu at 4 h in data set [2] of under 0.1.

As for `C[C@@H]1CCCOc2ncc(-c3cnn(CCN(C)C)c3)cc2C(=O)Nc2cccc(n2)-c2nncn21` [Compound 24, (R)-5^5-(1-(2-(Dimethylamino)ethyl)-1H-pyrazol-4-yl)-10-methyl-1^4H-6-oxa-3-aza-2(2,6),5(3,2)-dipyridina-1(3,4)-triazolacyclodecaphan-4-one], the 50% inhibitory concentration (IC50) (on ASK1/MAP3K5; in data set [1]) was 1000 to 10000 nM in each case.

Take `C[C@@H]1CN(c2cnc3c(c2)C(=O)Nc2cccc(n2)-c2nncn2[C@@H](C)CCCO3)C[C@@H](C)N1` [Compound 14, (S)-5^5-((3R,5R)-3,5-Dimethylpiperazin-1-yl)-10-methyl-1^4H-6-oxa-3-aza-2(2,6),5(3,2)-dipyridina-1(3,4)-triazolacyclodecaphan-4-one]: the IC50 is at most 100 nM on ASK1/MAP3K5 and 100 to 1000 nM in data set [1].

As for `C[C@H]1CCCOc2ncc(N3CC4CC(C3)O4)cc2C(=O)Nc2cccc(n2)-c2nncn21` [Compound 8, (10S)-5^5-(6-Oxa-3-azabicyclo[3.1.1]heptan-3-yl)-10-methyl-1^4H-6-oxa-3-aza-2(2,6),5(3,2)-dipyridina-1(3,4)-triazolacyclodecaphan-4-one], the IC50 (on ASK1/MAP3K5; in data set [1]) was at most 100 nM throughout.

Turning to `Cc1cn(-c2cnc3c(c2)C(=O)Nc2cccc(n2)-c2nncn2[C@@H](C)CCCO3)cn1` (single isomer, unassigned) [Compound 30], the IC50 (at ASK1/MAP3K5; in data set [1]) was at most 100 nM each time.

With `C[C@H]1CCCOc2ncc(OCCN(C)C)cc2C(=O)Nc2cccc(n2)-c2nncn21` [Compound 44, (S)-5^5-(2-(Dimethylamino)ethoxy)-10-methyl-1^4H-6-oxa-3-aza-2(2,6),5(3,2)-dipyridina-1(3,4)-triazolacyclodecaphan-4-one], the IC50 (at ASK1/MAP3K5; in data set [1]) was at most 100 nM throughout.

The record behind these values is patent publication US11897898B2, “Pyridine macrocycle compounds as ASK1 inhibiting agents” (BIOGEN MA INC., priority 2018, dated 2024).
